Test results: patent US6352993B1, “Pyrimidine derivatives and processes for the preparation thereof” (Yuhan Corporation, priority 1997, dated 2002)

Tests used:
[1] = molecular target: proton pump (H+/K+-ATPase) (UniProt P19156); test: Inhibition of proton pump (H+/K+-ATPase activity); type: biochemical; set-up: other: K+-stimulated proton pump activity, pH 6.0, 37°; conditions: K+-stimulated proton pump activity, pH 6.0, 37° C., 30 minutes preincubation; read-out: IC50 (concentration inhibiting 50% of the proton pump activity)
Protocol: (§1) Test 1: Inhibition of proton pump (H^+/K^+-ATPase activity)
(§2) A proton pump enzyme was prepared by the same method as in the Experiment 1-1 of WO 94/14795. Further, the inhibitory effect of proton pump activity was measured by the same method as in Experiment 1-2 of WO 94/14795.
(§3) Namely, the proton pump activity stimulated by Mg^++ was used as a negative comparative group, and the activity stimulated by Mg^++ and K^+ was used as a positive comparative group. The comparative compound was omeprazole.
(§4) Test tubes were divided into 4 groups: Group 1 as negative comparative group(n=3), Group 2 as positive comparative group(n=3), Group 3(n=5×2) to be administered with the compound of the present invention and Group 4(n=5×2) to be administered with the comparative compound.
(§5) The inhibitory effects of Groups 3 and 4 on proton pump activity were measured by employing the compound prepared in Examples and omeprazole, respectively, each of which was dissolved in dimethylsulfoxide at 5 different concentrations.
(§6) To each of Groups 1, 2, 3 and 4 were added 100 μl of magnesium chloride(40 mM) dissolved in 40 mM Tris-HCI buffer(ph 6.0) and 100 μg of the enzyme source. The 50 μl of potassium chloride(50 mM) and 50 μl of ammonium chloride(6 mM) dissolved in 40 mM Tris-HCl buffer(pH 6.0) were added to all groups except for group 1.
(§7) 10 μl of dimethylsulfoxide was added to each of Groups 1 and 2; and to Group 3 was added 10 μl of dimethylsulfoxide solution prepared by dissolving compound of EXAMPLE at 5 different concentration(n=5×2). To Group 4, 10 μl of the solution prepared by dissolving omeprazole in dimethylsulfoxide at 5 different concentration(37.6, 21.4, 12.2, 7.0 and 4.0 μM) was added(n=5×2). 40 mM Tris-HCI buffer(pH=6.0) was added thereto so as to make the total volume 400 μl.
(§8) Thereafter, the test tube of each Group were placed at 37° C. for 30 minutes for the preincubation. 100 μl ATP solution (6.6 mM) was added until the reaction volume became 500 μl. After the reaction was carried out at 37° C. for 30 minutes, 25% cold trichloroacetic acid was added to terminate the enzyme reaction. The released inorganic phosphate was measured by an automatic analyzer(Express 550, coming).
(§9) The difference between Group 1 and Group 2 represents the proton pump activity activated by K^+ only. The IC50s of Group 3 and 4 were calculated from Litchfield-wilcoxon equation[see, e.g., J. Pharrnacol. Exp. Ther., 96, 99(1949)]. The concentrations of the test compounds inhibiting 50% of the proton pump activity are represented as IC50 in Table 1.

[2] = molecular target: proton pump (H+/K+-ATPase) (UniProt P19156); test: Inhibition of proton pump (H+/K+-ATPase activity); type: biochemical; set-up: Effect ratio; conditions: relative to omeprazole IC50
Protocol: as §1, §2, §3, §4, §5, §6, §7, §8, §9

[3] = system: gastric secretion in pylorus-ligated Sprague-Dawly rats; test: Inhibition of gastric secretion (pylorus-ligated rats, Shay method); type: in vivo; conditions: 20 mg/kg intraduodenally, 5 hours; for Relative conc.: gastric juice acidity relative to omeprazole, equation (II); for Relative volume: gastric juice amount relative to omeprazole, equation (I); for Relative Acid Output: total acid output relative to omeprazole, equation (III)
Protocol: Test 2: Inhibition of gastric secretion
In accordance with the method disclosed in Shay, H., et al., Gastroenterology 5 43-61(1945), Test 2 was carried out.
Sprague-Dawly rats having a body weight of 170±10 g were divided into 3 groups(n=5) and deprived of food for 24 hours before the experiment with free access to water. Under ether anesthesia, the abdomen was incised, and the pylorus was ligated. As a comparative group, Group 1 was administered intraduodenally in a volume of 0.5 ml/200 g of 30% aqueous polyethylene glycol 400 solution. Groups 2 and 3 were administered intraduodenally with the compound of Example and omeprazole, respectively, each of which was suspended in 30% aqueous polyethylene glycol 400 solution at a concentration of 20 mg/kg. After closing the abdominal cavity, the rats were placed for 5 hours and then killed by cervical dislocation. The stomach was extracted to obtain gastric juice.
Tne gastric juice was centrifuged at 1,000 g to remove precipitates. The amount and acidity of the gastric juice were measured. Relative volumes, relative acid concentrations and relative acid outputs of the test compounds were calculated from equations(I), (II) and (III) and the results are shown in Table 2.
Relative volume=(the average amount of gastric juice of Group 1—the average amount of gastric juice of Group 2)/(the average amount of gastric juice of Group 1−the average amount of gastric juice of Group 3)—(I)
Relative acid concerntration=(the average acidity of Group 1—the average acidity of Group 2)/(the average acidity of Group 1—the average acidity of Group 3)—(II)
Relative acid output (the total amount of acid output of Group 1—the total amount of acid output of Group 2)/(the total amount of acid output of Group 1—the total amount of acid output of Group 3)—(m)

Row | IC50 [1] [nM] | Effect ratio [2] | SMILES | Relative conc. [3] | Relative volume [3] | Relative Acid Output [3]
1 | 1850 | 6.0 | CCCNc1nc(COC)c(C)c(N2CCc3ccccc3C2)n1.Cl [Example 25, 6-methoxymethyl-5-methyl-2-(2-methylethylamino)-4-(1,2,3,4-tetrahydroisoquinolin-2-yl)pyrimidine hydrochloride] | 0.52 | 1.00 | 0.86
2 | 2600 | 4.3 | COCc1nc(Nc2ccc(F)cc2)nc(N2CCc3ccccc3C2)c1C.Cl [Example 26, 6-methoxymethyl-5-methyl-2-(4-fluorophenylamino)-4-(1,2,3,4-tetrahydroisoquinolin-2-yl)pyrimidine hydrochloride] | 0.64 | 0.67 | 0.74
3 | 1550 | 7.2 | COCc1nc(Nc2ccc(F)cc2C)nc(N2CCc3ccccc3C2)c1C.Cl [Example 27, 6-methoxymethyl-5-methyl-2-(4-fluoro-2-methylphenylamino)-4-(1,2,3,4-tetrahydroisoquinolin-2-yl)pyrimidine hydrochloride] | 0.68 | 0.99 | 0.90
4 | 1740 | 6.4 | COCc1nc(Nc2ccc(F)cc2)nc(N2CCc3ccccc3C2C)c1C.Cl (stereo not drawn) [Example 28, 6-methoxymethyl-5-methyl-2-(4-fluorophenylamino)-4-(1-methyl-1,2,3,4-tetrahydroisoquinolin-2-yl)pyrimidine hydrochloride] | 0.60 | 0.78 | 0.78
5 | 2550 | 4.4 | COCc1nc(Nc2ccc(F)cc2C)nc(N2CCc3ccccc3C2C)c1C.Cl (stereo not drawn) [Example 29, 6-methoxymethyl-5-methyl-2-(2-methyl-4-fluorophenylamino)-4-(1-methyl-1,2,3,4-tetrahydroisoquinolin-2-yl)pyrimidine hydrochloride] | 0.81 | 0.78 | 0.88
6 | 2560 | 4.3 | COCc1nc(Nc2ccccc2)nc(N2CCc3ccccc3C2C)c1C.Cl (stereo not drawn) [Example 31, 6-methoxymethyl-5-methyl-2-phenylamino-4-(1-methyl-1,2,3,4-tetrahydroisoquinolin-2-yl)pyrimidine hydrochloride] | 0.97 | 1.06 | 1.01
7 | 1340 | 8.3 | Cc1c(CO)nc(Nc2ccccc2)nc1N1CCc2ccccc2C1C.Cl (stereo not drawn) [Example 32, 6-hydroxymethyl-5-methyl-2-phenylamino-4-(1-methyl-1,2,3,4-tetrahydroisoquinolin-2-yl)pyrimidine hydrochloride] | 0.47 | 0.84 | 0.77
8 | 430 | 25.8 | Cc1ccccc1Nc1nc(CO)c(C)c(N2CCc3ccccc3C2C)n1.Cl (stereo not drawn) [Example 34, 6-hydroxymethyl-5-methyl-2-(2-methylphenylamino)-4-(1-methyl-1,2,3,4-tetrahydroisoquinolin-2-yl)pyrimidine hydrochloride] | 0.45 | 0.81 | 0.78
9 | 310 | 35.8 | Cc1nc(Nc2ccc(F)cc2)nc(N2CCc3cc(O)ccc3C2C)c1C.Cl (stereo not drawn) [Example 36, 5,6-dimethyl-2-(4-fluorophenylamino)-4-(1-methyl-6-hydroxy-1,2,3,4-tetrahydroisoquinolin-2-yl)pyrimidine hydrochloride] | 1.08 | 1.05 | 1.15
